Measured values published in patent US20120295907A1, “INSECTICIDAL COMPOUNDS” (SYNGENTA CROP PROTECTION, LLC, priority 2009, published 2012).

Assays:
Type in all cases: in vivo
[1] = test system: Spodoptera littoralis; assay: Spodoptera littoralis (Egyptian Cotton Leafworm) cotton leaf disc spray test; conditions: foliar, 72 h, 200 ppm spray on cotton leaf discs, L1 larvae, mortality, feeding behavior, growth regulation 3 DAT
[2] = test system: Heliothis virescens; assay: Heliothis virescens (Tobacco Budworm) egg test on artificial diet; conditions: 96 h, 200 ppm (concentration in well 18 ppm), eggs 0-24 h old on artificial diet, 4 days, egg mortality, larval mortality, growth regulation
[3] = test system: Plutella xylostella; assay: Plutella xylostella (Diamond Back Moth) artificial diet MTP test; conditions: 144 h, 200 ppm (concentration in well 18 ppm), L2 larvae, 6 days, larval mortality, growth regulation
[4] = test system: Diabrotica balteata; assay: Diabrotica balteata (Corn Root Worm) artificial diet MTP test; conditions: 120 h, 200 ppm (concentration in well 18 ppm), L2 larvae, 5 days, larval mortality, growth regulation
[5] = test system: Thrips tabaci; assay: Thrips tabaci (Onion Thrips) sunflower leaf disc spray test; conditions: foliar, 168 h, 200 ppm spray on sunflower leaf discs, population of mixed ages, 7 days, mortality
[6] = test system: Tetranychus urticae; assay: Tetranychus urticae (Two-Spotted Spider Mite) bean leaf disc spray test; conditions: foliar, 192 h, 200 ppm spray on bean leaf discs, mite populations of mixed ages, 8 days, egg, larval and adult mortality, read-out: control of Tetranychus urticae

Measured: pest or weed control at 200 ppm

CCc1cc(C(F)(C(F)(F)F)C(F)(F)C(F)(F)F)cc(C)c1NC(=O)c1cccc(NC(=O)c2cccnc2Cl)c1OC (stereo not shown) [A6]
≥ 80%: all assays above

COc1c(NC(=O)c2c(F)cc(C#N)cc2F)cccc1C(=O)Nc1c(Cl)cc(C(F)(C(F)(F)F)C(F)(F)C(F)(F)F)cc1Br (stereo not shown) [B176]
not listed: [4]
≥ 80%: all other assays above

COc1c(NC(=O)c2ccc([N+](=O)[O-])c(C)c2)cccc1C(=O)Nc1c(Cl)cc(C(F)(C(F)(F)F)C(F)(F)C(F)(F)F)cc1Br (stereo not shown) [B190]
not listed: [4]
≥ 80%: all other assays above

COc1c(NC(=O)c2ccc(C#N)cc2C)cccc1C(=O)Nc1c(Cl)cc(C(F)(C(F)(F)F)C(F)(F)C(F)(F)F)cc1Br (stereo not shown) [B1, N-[2-bromo-6-chloro-4-(1,2,2,3,3,3-hexafluoro-1-trifluoromethylpropyl)-phenyl]-3-(4-cyano-2-methylbenzoylamino)-2-methoxybenzamide]
not listed: [4]
≥ 80%: all other assays above

COc1c(NC(=O)c2cccnc2C(F)(F)F)cccc1C(=O)Nc1c(Cl)cc(C(F)(C(F)(F)F)C(F)(F)C(F)(F)F)cc1Br (stereo not shown) [B81]
≥ 80%: all assays above

COc1c(NC(=O)c2ccc(C(F)(F)F)cc2)cccc1C(=O)Nc1c(Cl)cc(C(F)(C(F)(F)F)C(F)(F)C(F)(F)F)cc1Cl (stereo not shown) [C15]
not listed: [4]
≥ 80%: all other assays above

COc1c(NC(=O)c2ccc(F)cc2C)cccc1C(=O)Nc1c(Cl)cc(C(F)(C(F)(F)F)C(F)(F)C(F)(F)F)cc1Cl (stereo not shown) [C9]
≥ 80%: all assays above

COc1c(NC(=O)c2ccc(Br)c(C)c2)cccc1C(=O)Nc1c(Cl)cc(C(F)(C(F)(F)F)C(F)(F)C(F)(F)F)cc1Br (stereo not shown) [B65]
not listed: [4]
≥ 80%: all other assays above

COc1c(NC(=O)c2ccc(F)cc2F)cccc1C(=O)Nc1c(Cl)cc(C(F)(C(F)(F)F)C(F)(F)C(F)(F)F)cc1Cl (stereo not shown) [C23]
≥ 80%: all assays above

COc1c(NC(=O)c2c(F)cc(F)cc2F)cccc1C(=O)Nc1c(C)cc(C(F)(C(F)(F)F)C(F)(F)F)cc1C [K1]
≥ 80%: all assays above

CCc1cc(C(F)(C(F)(F)F)C(F)(F)C(F)(F)F)cc(C)c1NC(=O)c1cccc(NC(=O)c2cccnc2F)c1OC (stereo not shown) [A7]
≥ 80%: all assays above

COc1c(NC(=O)c2ccc(Cl)s2)cccc1C(=O)Nc1c(Cl)cc(C(F)(C(F)(F)F)C(F)(F)C(F)(F)F)cc1Br (stereo not shown) [B67]
≥ 80%: all assays above

COc1c(NC(=O)c2sc(C)nc2C(F)(F)F)cccc1C(=O)Nc1c(Cl)cc(C(F)(C(F)(F)F)C(F)(F)C(F)(F)F)cc1Br (stereo not shown) [B134]
≥ 80%: all assays above

CCc1cc(C(F)(C(F)(F)F)C(F)(F)C(F)(F)F)cc(C)c1NC(=O)c1cccc(NC(=O)c2ccc(C#N)cc2C)c1OC (stereo not shown) [A5, N-[2-ethyl-4-(1,2,2,3,3,3-hexafluoro-1-trifluoromethylpropyl)-6-methyl-phenyl]-3-(4-cyano-2-methylbenzoylamino)-2-methoxybenzamide]
not listed: [2]
≥ 80%: all other assays above

COc1c(NC(=O)c2c(F)cccc2F)cccc1C(=O)Nc1c(Cl)cc(C(F)(C(F)(F)F)C(F)(F)C(F)(F)F)cc1Br (stereo not shown) [B172]
not listed: [4]
≥ 80%: all other assays above

COc1c(NC(=O)c2cc(F)ccc2Cl)cccc1C(=O)Nc1c(Cl)cc(C(F)(C(F)(F)F)C(F)(F)C(F)(F)F)cc1Br (stereo not shown) [B154]
not listed: [2]
≥ 80%: all other assays above

COc1c(NC(=O)c2ccc([N+](=O)[O-])cc2F)cccc1C(=O)Nc1c(Cl)cc(C(F)(C(F)(F)F)C(F)(F)C(F)(F)F)cc1Br (stereo not shown) [B191]
not listed: [4]
≥ 80%: all other assays above

COc1c(NC(=O)c2ccco2)cccc1C(=O)Nc1c(Cl)cc(C(F)(C(F)(F)F)C(F)(F)C(F)(F)F)cc1Cl (stereo not shown) [C12]
not listed: [5]
≥ 80%: all other assays above

COc1c(NC(=O)c2ccc([N+](=O)[O-])c(C(F)(F)F)c2)cccc1C(=O)Nc1c(Cl)cc(C(F)(C(F)(F)F)C(F)(F)C(F)(F)F)cc1Br (stereo not shown) [B179]
not listed: [5]
≥ 80%: all other assays above

COc1c(NC(=O)c2ccc(C#N)cc2Cl)cccc1C(=O)Nc1c(Cl)cc(C(F)(C(F)(F)F)C(F)(F)F)cc1Br [G2]
not listed: [5]
≥ 80%: all other assays above

COc1c(NC(=O)c2ccc(C#N)cc2C)cccc1C(=O)Nc1c(C)cc(C(F)(C(F)(F)F)C(F)(F)F)cc1C [K4]
not listed: [5]
≥ 80%: all other assays above

COc1c(NC(=O)c2ccc([N+](=O)[O-])c(Cl)c2)cccc1C(=O)Nc1c(Cl)cc(C(F)(C(F)(F)F)C(F)(F)C(F)(F)F)cc1Br (stereo not shown) [B170]
not listed: [5]
≥ 80%: all other assays above

CCc1cc(C(F)(C(F)(F)F)C(F)(F)C(F)(F)F)cc(C)c1NC(=O)c1cccc(NC(=O)c2cccc([N+](=O)[O-])c2C)c1OC (stereo not shown) [A2, N-[2-ethyl-4-(1,2,2,3,3,3-hexafluoro-1-trifluoromethylpropyl)-6-methylphenyl]-3-(2-methyl-3-nitrobenzoylamino)-2-methoxybenzamide]
≥ 80%: [1] | [3] | [5] | [6]

COc1c(NC(=O)c2ccc(C#N)cc2C)cccc1C(=O)Nc1c(Cl)cc(C(F)(C(F)(F)F)C(F)(F)F)cc1Br [G1]
not listed: [5]
≥ 80%: all other assays above

COc1c(NC(=O)c2sc(C)nc2C)cccc1C(=O)Nc1c(Cl)cc(C(F)(C(F)(F)F)C(F)(F)C(F)(F)F)cc1Br (stereo not shown) [B96]
not listed: [5]
≥ 80%: all other assays above

COc1c(NC(=O)c2ccc(S(C)(=O)=O)cc2)cccc1C(=O)Nc1c(C)cc(C(F)(C(F)(F)F)C(F)(F)C(F)(F)F)cc1C (stereo not shown) [F18]
not listed: [5]
≥ 80%: all other assays above

COc1c(NC(=O)c2ccc(F)cc2C)cccc1C(=O)Nc1c(C)cc(C(F)(C(F)(F)F)C(F)(F)C(F)(F)F)cc1C (stereo not shown) [F27]
not listed: [5]
≥ 80%: all other assays above
